In patent US20060252807A1, “Novel ortho-terphenyl inhibitors of p38 kinase and methods of treating inflammatory disorders” (Kalypsys, Inc., priority 2005, published 2006) one finds IC50 data, which are given here for 46 compounds.

Broadly, the IC50 is the concentration needed to halve the response being measured. A lower IC50 goes with higher potency.

T1 sequence (Q16539 whole entry): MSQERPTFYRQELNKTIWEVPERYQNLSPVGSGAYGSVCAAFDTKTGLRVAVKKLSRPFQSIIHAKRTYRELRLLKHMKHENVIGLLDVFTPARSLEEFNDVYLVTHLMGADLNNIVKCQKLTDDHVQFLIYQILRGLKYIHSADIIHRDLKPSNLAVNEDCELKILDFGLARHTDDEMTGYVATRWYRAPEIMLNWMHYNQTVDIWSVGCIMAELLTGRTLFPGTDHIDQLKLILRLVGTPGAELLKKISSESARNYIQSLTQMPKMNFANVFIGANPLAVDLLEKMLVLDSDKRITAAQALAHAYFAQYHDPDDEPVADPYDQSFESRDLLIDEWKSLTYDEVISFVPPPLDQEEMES

The experiment concerns the target T1, active p38 alpha enzyme (Upstate Biotechnology) (Homo sapiens, UniProt Q16539).
T1 construct: purchased Upstate Biotechnology
Kind of experiment: p38α biochemical assay (ATP turnover, luminescent detection, Cambrex PKlight). The settings on record: p38α biochemical assay, Table 1 Biological Activity. As for the experimental part:
The p38α biochemical assay employed is based on measurement of total ATP turnover following enzyme incubation with substrate in the presence of ATP with the use of a luminescent detection reagent (Cambrex PKlight). The assays were performed in 1536-well white opaque plates.
The final volume was 7.5005 μL as prepared prepared from the addition of 5 ul of kinase reaction (p38 alpah+MapkapK2+ATP) with 0.0005 μL compound dissolved in DMSO, and 2.5 ul of the detection reagent. Assay buffer contains the following reagents to give final concentration in the assay: 200 mM Tris, 100 mM MgCl2, 1.5 mM EGTA, 4 mM CaCl2, 20 mM MOPS, 1 mM EDTA, 1% glycerol, 0.1% B-Mecaptoethanol, and 1 mg/ml BSA. Test compounds are pinned using proprietary pintool technology (Kalypsys, Inc) and delivered as […] amounts into the 5 ul mixture of active p38 alpha enzyme (Upstate Biotechnology) and MapkapK2 (Upstate Biotechnology) whole protein as a substrate for phosphorylation in the presence of 1.4 uM final concentration ATP. Reactions are incubated at 30C for 2 hours and detection reagent is added in 2.5 ul/well amounts. Assay is read using a Perkin Elmer Viewlux.
`COc1ccc(C(=O)NCc2nc(-c3ccc(F)cc3)c(-c3nc(C(=O)NC(C)C)cs3)o2)c(O)c1` [Example 188] returned an IC50 greater than 1000 nM. `COc1ccc(C(=O)NCc2nc(-c3ccc(F)cc3)c(-c3nc(C(=O)NC(C)C)cs3)o2)cc1O` [Example 189] displayed an IC50 greater than 1000 nM. The result for `CC(C)NC(=O)c1csc(-c2oc(CNC(=O)c3cc(O)c(O)c(O)c3)nc2-c2ccc(F)cc2)n1` [Example 190] reads no more than 1000 nM; that for `CC(C)NC(=O)c1csc(-c2oc(CNC(=O)Cc3ccc(O)c(F)c3)nc2-c2ccc(F)cc2)n1` [Example 191], no more than 1000 nM. The compound `Cc1cc(C(=O)NCc2nc(-c3ccc(F)cc3)c(-c3nc(C(=O)NC(C)C)cs3)o2)cc(Cl)n1` [Example 192] yielded an IC50 greater than 1000 nM. Compound `CC(C)NC(=O)c1csc(-c2oc(CNC(=O)Cc3c(F)cccc3F)nc2-c2ccc(F)cc2)n1` [Example 193] gave a half-maximal inhibitory concentration (IC50) of no more than 1000 nM. For the compound `CC(C)NC(=O)c1csc(-c2oc(CNC(=O)c3cccc4ccccc34)nc2-c2ccc(F)cc2)n1` [Example 194], the IC50 was no more than 1000 nM. `CC(C)NC(=O)c1csc(-c2oc(CNC(=O)c3ccc(Cl)cc3O)nc2-c2ccc(F)cc2)n1` [Example 195] gave a half-maximal inhibitory concentration (IC50) greater than 1000 nM. Regarding `CC(C)NC(=O)c1csc(-c2oc(CNC(=O)c3cc(Cl)ccc3O)nc2-c2ccc(F)cc2)n1` [Example 196], the IC50 was greater than 1000 nM. In the case of `CC(C)NC(=O)c1csc(-c2oc(CNC(=O)c3ccc4ncccc4c3)nc2-c2ccc(F)cc2)n1` [Example 197], the IC50 was no more than 1000 nM. On to `CC(C)NC(=O)c1csc(-c2oc(CNC(=O)c3cnc(O)c(Cl)c3)nc2-c2ccc(F)cc2)n1` [Example 198], for which the IC50 was no more than 1000 nM. Turning to `CC(C)NC(=O)c1csc(-c2oc(CNC(=O)c3ccc(F)cc3Cl)nc2-c2ccc(F)cc2)n1` [Example 199], the concentration for half-maximal inhibition (IC50) was no more than 1000 nM. `CC(C)NC(=O)c1csc(-c2oc(CNC(=O)c3c(F)cccc3Cl)nc2-c2ccc(F)cc2)n1` [Example 200] showed an IC50 of no more than 1000 nM. As to `CC(C)NC(=O)c1csc(-c2oc(CNC(=O)CNC(=O)OC(C)(C)C)nc2-c2ccc(F)cc2)n1` [Example 201], the concentration for half-maximal inhibition (IC50) is greater than 1000 nM.

Turning to `Cc1c(C(=O)NCc2nc(-c3ccc(F)cc3)c(-c3nc(C(=O)NC(C)C)cs3)o2)oc2ccccc12` [Example 202], the concentration for half-maximal inhibition (IC50) is greater than 1000 nM. The result for `CC(C)NC(=O)c1csc(-c2oc(CNC(=O)CC3Cc4ccccc4C3)nc2-c2ccc(F)cc2)n1` [Example 203] reads greater than 1000 nM; that for `CC(C)NC(=O)c1csc(-c2oc(CNC(=O)C3CCc4ccccc4C3)nc2-c2ccc(F)cc2)n1` (stereo not shown) [Example 204], greater than 1000 nM; that for `COc1ccccc1/C=C/C(=O)NCc1nc(-c2ccc(F)cc2)c(-c2nc(C(=O)NC(C)C)cs2)o1` [Example 205], greater than 1000 nM.

Consider `CC(C)NC(=O)c1csc(-c2oc(CNC(=O)c3csc4ccccc34)nc2-c2ccc(F)cc2)n1` [Example 206], for which the 50% inhibitory concentration (IC50) is greater than 1000 nM. `CC(C)NC(=O)c1csc(-c2oc(CNC(=O)c3cc4ccccc4s3)nc2-c2ccc(F)cc2)n1` [Example 207] showed an IC50 of no more than 1000 nM.

Regarding `CCCCc1ccc(C(=O)NCc2nc(-c3ccc(F)cc3)c(-c3nc(C(=O)NC(C)C)cs3)o2)cc1` [Example 208], the half-inhibitory concentration (IC50) was greater than 1000 nM. `CC(C)NC(=O)c1csc(-c2oc(CNC(=O)c3ccc(C(C)(C)C)cc3)nc2-c2ccc(F)cc2)n1` [Example 209] gave an IC50 greater than 1000 nM. `CC(C)NC(=O)c1csc(-c2oc(CNC(=O)c3ccc(N(C)C=O)cc3)nc2-c2ccc(F)cc2)n1` [Example 210] had an IC50 greater than 1000 nM. The compound `CC(=O)Nc1cccc(C(=O)NCc2nc(-c3ccc(F)cc3)c(-c3nc(C(=O)NC(C)C)cs3)o2)c1` [Example 211] returned a half-inhibitory concentration (IC50) greater than 1000 nM.

For `CC(C)NC(=O)c1csc(-c2oc(CNC(=O)COc3ccccc3C=O)nc2-c2ccc(F)cc2)n1` [Example 212], the 50% inhibitory concentration (IC50) is greater than 1000 nM. The result for `CC(=O)Oc1ccc(C(=O)NCc2nc(-c3ccc(F)cc3)c(-c3nc(C(=O)NC(C)C)cs3)o2)cc1` [Example 213] reads greater than 1000 nM; that for `COC(=O)c1ccc(C(=O)NCc2nc(-c3ccc(F)cc3)c(-c3nc(C(=O)NC(C)C)cs3)o2)cc1` [Example 214], greater than 1000 nM; that for `CC(=O)Oc1cccc(C(=O)NCc2nc(-c3ccc(F)cc3)c(-c3nc(C(=O)NC(C)C)cs3)o2)c1` [Example 215], greater than 1000 nM. For `CC(=O)Oc1ccccc1C(=O)NCc1nc(-c2ccc(F)cc2)c(-c2nc(C(=O)NC(C)C)cs2)o1` [Example 216], the IC50 was greater than 1000 nM. For `CC(C)NC(=O)c1csc(-c2oc(CNC(=O)Cc3ccc4c(c3)OCO4)nc2-c2ccc(F)cc2)n1` [Example 217], the IC50 is greater than 1000 nM. The result for `CCCOc1ccc(C(=O)NCc2nc(-c3ccc(F)cc3)c(-c3nc(C(=O)NC(C)C)cs3)o2)cc1` [Example 218] reads greater than 1000 nM; that for `CC(C)NC(=O)c1csc(-c2oc(CNC(=O)c3ccc(OC(C)C)cc3)nc2-c2ccc(F)cc2)n1` [Example 219], greater than 1000 nM; that for `Cc1cccc([N+](=O)[O-])c1C(=O)NCc1nc(-c2ccc(F)cc2)c(-c2nc(C(=O)NC(C)C)cs2)o1` [Example 220], no more than 1000 nM.

`Cc1cccc(C(=O)NCc2nc(-c3ccc(F)cc3)c(-c3nc(C(=O)NC(C)C)cs3)o2)c1[N+](=O)[O-]` [Example 221] came in with an IC50 of no more than 1000 nM. `Cc1ccc([N+](=O)[O-])c(C(=O)NCc2nc(-c3ccc(F)cc3)c(-c3nc(C(=O)NC(C)C)cs3)o2)c1` [Example 222] returned an IC50 of no more than 1000 nM.

Turning to `Cc1c(C(=O)NCc2nc(-c3ccc(F)cc3)c(-c3nc(C(=O)NC(C)C)cs3)o2)cccc1[N+](=O)[O-]` [Example 223], the half-inhibitory concentration (IC50) was greater than 1000 nM. The result for `COc1ccc(OC)c(C(=O)NCc2nc(-c3ccc(F)cc3)c(-c3nc(C(=O)NC(C)C)cs3)o2)c1` [Example 224] reads greater than 1000 nM; that for `COc1ccc(C(=O)NCc2nc(-c3ccc(F)cc3)c(-c3nc(C(=O)NC(C)C)cs3)o2)c(OC)c1` [Example 225], greater than 1000 nM.

For `COc1cccc(OC)c1C(=O)NCc1nc(-c2ccc(F)cc2)c(-c2nc(C(=O)NC(C)C)cs2)o1` [Example 226], the IC50 was no more than 1000 nM. The result for `COc1cc(OC)cc(C(=O)NCc2nc(-c3ccc(F)cc3)c(-c3nc(C(=O)NC(C)C)cs3)o2)c1` [Example 227] reads greater than 1000 nM.

In the case of `COc1cccc(C(=O)NCc2nc(-c3ccc(F)cc3)c(-c3nc(C(=O)NC(C)C)cs3)o2)c1OC` [Example 228], the IC50 was greater than 1000 nM. As to `Cc1ccc(SCC(=O)NCc2nc(-c3ccc(F)cc3)c(-c3nc(C(=O)NC(C)C)cs3)o2)cc1` [Example 229], the half-inhibitory concentration (IC50) was greater than 1000 nM.

`CC(C)NC(=O)c1csc(-c2oc(CNC(=O)/C=C/c3ccc(Cl)cc3)nc2-c2ccc(F)cc2)n1` [Example 230] came in with an IC50 of no more than 1000 nM. Regarding `CC(C)NC(=O)c1csc(-c2oc(CNC(=O)/C=C/c3ccccc3Cl)nc2-c2ccc(F)cc2)n1` [Example 231], the IC50 was greater than 1000 nM. The result for `CC(C)NC(=O)c1csc(-c2oc(CNC(=O)c3ccc([N+](=O)[O-])c(O)c3)nc2-c2ccc(F)cc2)n1` [Example 232] reads greater than 1000 nM; that for `CC(C)NC(=O)c1csc(-c2oc(CNC(=O)c3cc(O)ccc3[N+](=O)[O-])nc2-c2ccc(F)cc2)n1` [Example 233], no more than 1000 nM.
